In the NIST ThermoML archive (doi:10.1007/s10765-016-2061-1):
Numbers after ± are expanded uncertainties.

Conditions: Liquid, Vibrating tube method

CCF [fluoroethane]
Conditions	mass density [kg/m3]
283.5 K, 49990 kPa	805.67 ± 0.76
283.5 K, 60000 kPa	816.48 ± 0.87
283.5 K, 69990 kPa	826.06 ± 0.87
283.5 K, 79970 kPa	834.87 ± 0.89
283.5 K, 90040 kPa	843.3 ± 0.9
283.51 K, 10000 kPa	747.35 ± 0.69
283.51 K, 15000 kPa	756.91 ± 0.69
283.51 K, 20000 kPa	765.51 ± 0.7
283.51 K, 25000 kPa	773.62 ± 0.7
283.51 K, 30000 kPa	780.86 ± 0.71
283.51 K, 40000 kPa	794.13 ± 0.74
283.51 K, 100000 kPa	851.08 ± 0.91
283.52 K, 1000 kPa	727.11 ± 0.69
283.52 K, 3000 kPa	731.96 ± 0.69
283.52 K, 4990 kPa	736.6 ± 0.68
293.2 K, 1010 kPa	706.97 ± 0.72
293.2 K, 3010 kPa	712.87 ± 0.72
293.21 K, 5010 kPa	718.27 ± 0.7
293.21 K, 10010 kPa	730.51 ± 0.7
293.21 K, 15010 kPa	741.15 ± 0.7
293.21 K, 20000 kPa	750.65 ± 0.71
293.21 K, 25010 kPa	759.29 ± 0.72
293.21 K, 30010 kPa	767.25 ± 0.73
293.21 K, 70000 kPa	815.59 ± 0.9
293.21 K, 80000 kPa	825 ± 0.91
293.22 K, 40010 kPa	781.39 ± 0.75
293.22 K, 50000 kPa	793.87 ± 0.78
293.22 K, 60000 kPa	805.15 ± 0.9
293.22 K, 90000 kPa	833.51 ± 0.92
293.22 K, 99990 kPa	841.66 ± 0.94
303.23 K, 3010 kPa	692.69 ± 0.78
303.23 K, 5010 kPa	699.12 ± 0.73
303.23 K, 10000 kPa	713.26 ± 0.72
303.23 K, 15000 kPa	725.31 ± 0.72
303.23 K, 20010 kPa	735.85 ± 0.72
303.23 K, 30000 kPa	753.95 ± 0.74
303.24 K, 25010 kPa	745.33 ± 0.73
303.24 K, 40010 kPa	769.21 ± 0.77
303.24 K, 50000 kPa	782.6 ± 0.8
303.24 K, 60000 kPa	794.39 ± 0.92
303.24 K, 70000 kPa	805.57 ± 0.93
303.24 K, 80000 kPa	815.36 ± 0.94
303.25 K, 90000 kPa	824.43 ± 0.95
303.25 K, 100000 kPa	832.9 ± 0.96
313.14 K, 3000 kPa	669.48 ± 0.82
313.14 K, 5000 kPa	677.22 ± 0.77
313.14 K, 10000 kPa	694 ± 0.75
313.14 K, 15000 kPa	707.5 ± 0.74
313.15 K, 20000 kPa	719.54 ± 0.74
313.15 K, 25000 kPa	729.96 ± 0.75
313.15 K, 30010 kPa	739.29 ± 0.75
313.15 K, 40000 kPa	755.43 ± 0.79
313.15 K, 50000 kPa	770.06 ± 0.81
313.15 K, 60000 kPa	782.28 ± 0.95
313.15 K, 70000 kPa	794.18 ± 0.96
313.15 K, 80000 kPa	804.63 ± 0.97
313.16 K, 90000 kPa	814.08 ± 0.98
313.16 K, 100000 kPa	822.46 ± 1
323 K, 3000 kPa	644.53 ± 0.92
323 K, 5000 kPa	654.18 ± 0.82
323 K, 10000 kPa	673.87 ± 0.79
323 K, 15000 kPa	689.57 ± 0.77
323 K, 20000 kPa	702.96 ± 0.76
323 K, 25000 kPa	714.54 ± 0.77
323 K, 90000 kPa	804.1 ± 1
323.01 K, 30000 kPa	724.71 ± 0.77
323.01 K, 40000 kPa	742.42 ± 0.8
323.01 K, 50000 kPa	757.67 ± 0.83
323.01 K, 60000 kPa	770.9 ± 0.98
323.01 K, 69990 kPa	783.33 ± 0.99
323.01 K, 80000 kPa	794.16 ± 1
323.01 K, 100000 kPa	813.21 ± 1
332.98 K, 3000 kPa	616.38 ± 1.1
332.98 K, 5000 kPa	628.96 ± 0.91
332.98 K, 10010 kPa	653.01 ± 0.85
332.98 K, 50000 kPa	745.52 ± 0.85
332.98 K, 60000 kPa	759.62 ± 1
332.99 K, 15000 kPa	671.15 ± 0.8
332.99 K, 20010 kPa	686.12 ± 0.78
332.99 K, 25000 kPa	698.88 ± 0.79
332.99 K, 29990 kPa	710.09 ± 0.79
332.99 K, 39990 kPa	729.27 ± 0.82
332.99 K, 69990 kPa	772.51 ± 1
332.99 K, 80010 kPa	783.85 ± 1
332.99 K, 90000 kPa	794.07 ± 1
332.99 K, 100000 kPa	803.45 ± 1.1
342.85 K, 3000 kPa	582.54 ± 1.3
342.85 K, 5000 kPa	600.31 ± 1.1
342.85 K, 10000 kPa	630.51 ± 0.93
342.85 K, 15000 kPa	651.87 ± 0.84
342.85 K, 20000 kPa	668.76 ± 0.81
342.85 K, 25000 kPa	682.96 ± 0.81
342.85 K, 30000 kPa	695.28 ± 0.81
342.85 K, 40000 kPa	716.03 ± 0.84
342.85 K, 60000 kPa	748.38 ± 1.1
342.86 K, 50010 kPa	733.53 ± 0.87
342.86 K, 70000 kPa	762.03 ± 1.1
342.86 K, 79990 kPa	773.74 ± 1.1
342.86 K, 90010 kPa	784.53 ± 1.1
342.87 K, 100000 kPa	794.42 ± 1.1
352.86 K, 5000 kPa	566.12 ± 1.3
352.86 K, 10000 kPa	606.19 ± 1.1
352.86 K, 15000 kPa	631.59 ± 0.89
352.86 K, 19990 kPa	650.88 ± 0.85
352.86 K, 25000 kPa	666.7 ± 0.83
352.86 K, 29990 kPa	680.18 ± 0.83
352.86 K, 39990 kPa	702.62 ± 0.86
352.86 K, 50000 kPa	721.07 ± 0.89
352.86 K, 59990 kPa	736.86 ± 0.93
352.86 K, 70000 kPa	751.19 ± 1.1
352.86 K, 79990 kPa	763.56 ± 1.1
352.86 K, 90000 kPa	774.75 ± 1.1
352.87 K, 99990 kPa	785.11 ± 1.1
362.79 K, 4990 kPa	521.7 ± 1.6
362.79 K, 10000 kPa	579.49 ± 1.3
362.8 K, 15000 kPa	610.29 ± 0.97
362.8 K, 19990 kPa	632.41 ± 0.89
362.8 K, 24990 kPa	650.04 ± 0.86
362.8 K, 30000 kPa	664.91 ± 0.85
362.8 K, 40000 kPa	689.17 ± 0.88
362.8 K, 49990 kPa	708.84 ± 0.92
362.81 K, 59990 kPa	725.55 ± 0.95
362.81 K, 70000 kPa	740.64 ± 1.1
362.81 K, 80000 kPa	753.56 ± 1.1
362.81 K, 90000 kPa	765.31 ± 1.1
362.81 K, 99990 kPa	775.91 ± 1.2
